Legend:
[1] = system: Arabidopsis thaliana (columbia ecotype) plant body; assay: full-length cDNA microarray analysis of gene expression levels after environmental stress application; conditions: in vivo
Procedure: In this example, the gene expression levels at the time of application of various types of environmental stresses were analyzed using microarrays. Specifically, the microarrays described in Seki et al., “Monitoring the expression profiles of 7000 Arabidopsis genes under drought, cold, and high-salinity stresses using a full-length cDNA microarray,” Plant J. 31: 279-292, 2002, were used, and analysis was carried out in accordance with the method similar to the method described therein. Various types of environmental stresses were applied to a plant body under the following conditions. Specifically, low-temperature stress application was carried out by introducing a plate containing a plant body into a low-temperature chamber (4° C.). Dehydration stress application was carried out by capturing the plant body with forceps while refraining from damaging the plant body, roughly removing moisture from the plant body on a Kim Towel, placing the plant body on another plate, placing the plate in a clean bench while leaving the lid open, letting it stand for 2 hours, and then closing the lid. Salt stress application was carried out by dispensing a mixture of MS medium (containing 1% sucrose, 0.1% agar, and 1 mM luciferin) with 250 mM NaCl to the roots of the plant bodies (200 μl per plant body) using a Pipetman. ABA stress application was carried out by dispensing a mixture of MS medium (containing 1% sucrose, 0.1% agar, and 1 mM luciferin) with 100 μM ABA to the roots of the plant bodies (200 μl per plant body) using a Pipetman. As a plant body to which environmental stress is to be applied, Arabidopsis thaliana (columbia ecotype), which had been cultivated on a germination medium containing Murashige and Skoog Salt, 3% sucrose, and […] for 3 weeks, was used. Cultivation conditions were determined so as to maintain the temperature in the chamber at 22° C. with a 16-hour light period and an 8-hour dark period. Total RNA was extracted from plant bodies after environmental stress application or from plant bodies to which no environmental stress had been applied using the TRIZOL Reagent (Life Technologies), and mRNA was extracted using the mRNA isolation kit (Militenyi Biotec Auburn). In accordance with the method described in the above article, mRNA samples were reversely transcribed in the presence of Cy3 dUTP or Cy5 dUTP (Amersham Pharmacia). Microarray analysis was carried out using cDNAs obtained via reverse transcription. Data obtained via microarray analysis were analyzed using the Quantarray Version 2.0 (GSI Lumonics).

[2] = system: transgenic Arabidopsis thaliana plant body (luciferase reporter gene); assay: luciferase assay of promoter::LUC transgenic plants after environmental stress application; format: in vivo
Procedure: Specifically, promoter regions were isolated from these genes, transgenic plants in which luciferase reporter genes were to be expressed under the control of such promoters were prepared, and tissue specificity of the promoters was inspected via luciferase assay.
In this example, DNA fragments containing promoter regions of the genes identified in Example 1 were recovered via PCR.
The nucleotide sequences of the amplified DNA fragments were determined in accordance with a conventional technique to confirm that mutagenesis, such as substitution or deletion, was not introduced thereinto. After the absence of mutagenesis was confirmed, the recovered DNA fragments were introduced into the vector for promoter analysis (i.e., a vector prepared by introducing the Gateway recombinant sequence (tradename: Gateway Vector Conversion System, Invitrogen) and the luciferase reporter gene into the pGreen vector (Plant Molecular Biology 42: 819-832, 2000)) using the Gateway recombination system to construct a recombinant vector.
The recombinant vector prepared in (1) above was introduced into a plant via Agrobacterium infection. When a gene is introduced via Agrobacterium infection, a process of infecting a plant with Agrobacterium containing a plasmid comprising the target gene construct is necessary. This process was carried out via vacuum infiltration. Specifically, a plant body of Arabidopsis thaliana that had been grown in soil comprising vermiculite and an equivalent amount of pearlite was soaked in a culture solution of Agrobacterium containing the recombinant vector prepared in (1). The resultant was placed in a desiccator, suctioned with a vacuum pump to 65 to 70 mmHg, and then allowed to stand at room temperature for 5 to 10 minutes. The pot was transferred onto a tray, covered with a wrap, and kept moistened. The wrap was removed on the following day, the plant was allowed to grow in that state, and seeds were then harvested.
Subsequently, seeds were sown on MS agar medium to which antibiotic hygromycin has been added in order to select an individual having the recombinant vector prepared in (1). Arabidopsis thaliana that had been grown in this medium was transferred to a pot and allowed to grow therein. Thus, seeds of transgenic plants to which the recombinant vector prepared in (1) has been introduced were obtained.
The seeds of the transgenic plant lineage prepared in (2) were sowed on MS agar medium. The plant body 10 days after sowing was used for luciferase assay.
At the outset, 1 mM luciferin (containing 0.01% Triton-X) was sprayed over the entire plant body 5 times. After the plant body was allowed to stand in the dark for 5 minutes, luciferase luminescence was assayed using ARGUS (assay after treatment for 0 hours). Subsequently, various types of environmental stresses were applied (see below). Low-temperature stress application was carried out by introducing a plate containing a plant body into a low-temperature chamber (4° C.). Dehydration stress application was carried out by capturing the plant body with forceps while refraining from damaging the plant body, roughly removing moisture from the plant body on a Kim Towel, placing the plant body on another plate, placing the plate in a clean bench while leaving the lid open, letting it stand for 2 hours, and then closing the lid. Salt stress application was carried out by dispensing a mixture of MS medium (containing 1% sucrose, 0.1% agar, and 1 mM luciferin) with 250 mM NaCl to the roots of the plant bodies (200 μl per plant body) using a Pipetman. ABA stress application was carried out by dispensing a mixture of MS medium (containing 1% sucrose, 0.1% agar, and 1 mM luciferin) with 100 μM ABA to the roots of the plant bodies (200 μl per plant body) using a Pipetman.
Luciferase luminescence was assayed 2, 5, and 10 hours after the above various types of environmental stresses had been applied using the ARGUS system (Hamamatsu Photonics). […]

Substance: Promoter of RAFL05-20-M16: environmental stress responsive promoter DNA, SEQ ID NO: 3, upstream of At2g46680 (ATHB7 transcription factor)
- Environmental stress type to which the promoter responds [1]: Dehydration and salt
- Tissue in which specific induction of expression is realized ([2]; ABA stress (100 μM ABA)): Root tissue
- Tissue in which specific induction of expression is realized ([2]; ABA stress (100 μM ABA), listed as promoter of RAFL05-20-M16): root tissue
- time after stress application at which activity to induce gene expression is exhibited ([2]; ABA stress, root tissue): about 2 hours
- Tissue in which specific induction of expression is realized ([2]; Dehydration stress): Root tissue
- time after stress application at which activity to induce gene expression is exhibited ([2]; Dehydration stress): about 10 hours
- Tissue in which specific induction of expression is realized ([2]; Dehydration stress, listed as promoter of RAFL05-20-M16): root tissue
- Tissue allowing specific induction ([2]; summary over stress types): Stem and leaf tissue and root tissue
